Like-named read-outs stand apart in the source and are kept apart here.
Assays:
[1] = tested on: isolated rat liver mitochondria; assay: Mitochondrial oxygen consumption (glutamate/malate or succinate driven, state 4 and state 3); format: biochemical; settings: DMSO treated samples set as 1; for State 3 respiration driven by succinate at 10XCmax: key: 0 indicates that the drug had no effects (negative); for State 3 respiration driven by succinate at 1XCmax: key: 0 indicates that the drug had no effects (negative)
How it was run: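 Oxygen uptake on glutamate/malate or on succinate defined state 4; ADP added 3 min later gave state 3. Mitochondria isolated from rat liver by differential centrifugation, adjusted to 1 mg/ml and pretreated 5 min with inhibitor (0.1% DMSO final). Values relative to DMSO control, set to 1.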

[2] = tested on: RCC IV; assay: RCC IV activity in submitochondrial particles; format: biochemical, rat; set-up: key to RCC IV at 50XCmax / RCC IV at 100XCmax: activity relative to DMSO-treated controls (control set as 1 = 100%); settings: 50XCmax; DMSO treated samples set as 1; in %
How it was run: (§1)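 Abs 340 nm (I/V) or 600 nm (II), 1-min reads × 6 min; 550 nm (III, IV), 10-s reads × 2 min. RCC I = rotenone-free minus rotenone rate. DMSO control = 1.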

[3] = tested on: RCC I; assay: RCC I activity in submitochondrial particles; format: biochemical, rat; set-up: key to RCC I at 10XCmax / RCC I at 100XCmax / RCC I at 50XCmax / RCC I at 30XCmax / RCC I at 20XCmax: activity relative to DMSO-treated controls (control set as 1 = 100%); settings: 10XCmax; DMSO treated samples set as 1
How it was run: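 First, submitochondrial particles (1 mg/ml) are incubated with inhibitor for 15 min. Next, complex activities are followed spectrophotometrically, with RCC I taken as the difference between buffers lacking and containing rotenone. Finally, activities are expressed relative to DMSO controls set at 1.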

[4] = tested on: isolated rat liver mitochondria; assay: Mitochondrial ROS production (CM-H2DCFDA); settings: DMSO treated samples set as 1
[5] = tested on: isolated rat liver mitochondria; assay: Mitochondrial swelling (absorbance at 535 nm); format: biochemical; settings: difference in signal between KI and DMSO treated samples at the end of experiments; for Swelling 5XCmax: key: 0 indicates that the drug had no effects (negative)
[6] = target: T1, RCC II (Rattus norvegicus, UniProt P21913+Q641Z9+Q6PCT8+Q920L2); assay: RCC II activity in submitochondrial particles; format: biochemical; set-up: key: activity relative to DMSO-treated controls (control set as 1 = 100%); settings: DMSO treated samples set as 1
T1 construct: Submitochondrial particles were prepared by subjecting the intact mitochondria to three successive freeze–thaw cycles; from tissue; host or cells: rat liver mitochondria, used as submitochondrial particles
How it was run: as §1

[7] = cited from earlier work
[8] = tested on: RCC III; assay: RCC III activity in submitochondrial particles; format: biochemical, rat; set-up: key to RCC III at 100XCmax: activity relative to DMSO-treated controls (control set as 1 = 100%); settings: 100XCmax
How it was run: as §1

[9] = tested on: RCC V; assay: RCC V activity in submitochondrial particles; format: biochemical, rat; settings: DMSO treated samples set as 1; for RCC V at 5XCmax: key: 0 indicates that the drug had no effects (negative)
How it was run: as §1

[10] = tested on: isolated rat liver mitochondria; assay: Mitochondrial inner membrane potential (MMP), Rhodamine 123; format: biochemical; settings: difference in signal between KI and DMSO treated samples at the end of experiments
Source text: Fig. 3 KI effects on mitochondrial inner membrane potential (MMP). […] In a, c, data are means and standard derivations from three separate experiments. *p < 0.05 as compared to DMSO-treated samples at the end of experiments. In b, data are means of two independent experiments

T1 sequence (Q920L2 35-656): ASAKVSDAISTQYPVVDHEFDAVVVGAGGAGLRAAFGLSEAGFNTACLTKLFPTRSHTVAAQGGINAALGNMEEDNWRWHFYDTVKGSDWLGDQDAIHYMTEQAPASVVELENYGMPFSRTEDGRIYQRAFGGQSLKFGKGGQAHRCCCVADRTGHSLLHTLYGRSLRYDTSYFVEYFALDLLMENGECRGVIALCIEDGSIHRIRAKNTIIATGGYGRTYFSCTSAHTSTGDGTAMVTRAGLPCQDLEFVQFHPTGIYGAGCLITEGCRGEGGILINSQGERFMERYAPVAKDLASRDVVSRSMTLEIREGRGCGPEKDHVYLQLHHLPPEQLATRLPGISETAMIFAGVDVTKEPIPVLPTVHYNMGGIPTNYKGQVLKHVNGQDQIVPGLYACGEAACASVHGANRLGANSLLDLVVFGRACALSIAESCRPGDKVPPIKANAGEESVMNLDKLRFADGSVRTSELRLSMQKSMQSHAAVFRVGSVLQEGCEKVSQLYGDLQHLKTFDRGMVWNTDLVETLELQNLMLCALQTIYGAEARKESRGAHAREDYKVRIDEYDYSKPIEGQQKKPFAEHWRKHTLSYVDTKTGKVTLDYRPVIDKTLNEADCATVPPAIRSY
T1 sequence (P21913 31-282): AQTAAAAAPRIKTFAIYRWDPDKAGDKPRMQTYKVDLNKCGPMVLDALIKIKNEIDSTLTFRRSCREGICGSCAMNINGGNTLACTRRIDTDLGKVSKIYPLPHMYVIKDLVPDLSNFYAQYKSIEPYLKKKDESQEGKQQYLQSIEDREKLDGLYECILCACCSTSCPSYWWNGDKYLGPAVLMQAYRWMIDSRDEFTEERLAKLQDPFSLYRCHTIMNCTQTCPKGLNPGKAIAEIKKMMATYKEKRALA
T1 sequence (Q641Z9 1-169): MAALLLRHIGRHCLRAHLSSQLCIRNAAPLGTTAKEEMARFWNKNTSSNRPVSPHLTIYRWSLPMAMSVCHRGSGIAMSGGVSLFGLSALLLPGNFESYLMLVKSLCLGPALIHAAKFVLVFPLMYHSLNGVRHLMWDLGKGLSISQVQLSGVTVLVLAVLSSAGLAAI
T1 sequence (Q6PCT8 57-159): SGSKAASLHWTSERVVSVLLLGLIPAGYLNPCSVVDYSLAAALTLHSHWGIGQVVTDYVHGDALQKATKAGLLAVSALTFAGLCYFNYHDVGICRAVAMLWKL

COC(=O)c1ccc2c(c1)NC(=O)/C2=C(\Nc1ccc(N(C)C(=O)CN2CCN(C)CC2)cc1)c1ccccc1 [Nintedanib]
1: DILI potential (based on labeling) ([7]; 1 DILI positive, 0 negative according to labeling, ref product labeling) | DILI potential (based on labeling) ([7]; ref FDA product labeling)
0: State 3 respiration driven by glutamate/malate at 1XCmax ([1]; 1XCmax) | State 3 respiration driven by succinate at 1XCmax ([1]; 1XCmax) | State 4 respiration driven by glutamate/malate at 1XCmax ([1]; 1XCmax) | State 4 respiration driven by succinate at 1XCmax ([1]; 1XCmax) | State 3 respiration driven by glutamate/malate at 2.5XCmax ([1]; 2.5XCmax) | State 3 respiration driven by succinate at 2.5XCmax ([1]; 2.5XCmax) | State 4 respiration driven by glutamate/malate at 2.5XCmax ([1]; 2.5XCmax) | State 4 respiration driven by succinate at 2.5XCmax ([1]; 2.5XCmax) | State 3 respiration driven by glutamate/malate at 5XCmax ([1]; 5XCmax) | State 3 respiration driven by succinate at 5XCmax ([1]; 5XCmax) | State 4 respiration driven by glutamate/malate at 5XCmax ([1]; 5XCmax) | State 4 respiration driven by succinate at 5XCmax ([1]; 5XCmax) | State 3 respiration driven by glutamate/malate at 10XCmax ([1]; 10XCmax) | State 3 respiration driven by succinate at 10XCmax ([1]; 10XCmax) | State 4 respiration driven by glutamate/malate at 10XCmax ([1]; 10XCmax) | State 4 respiration driven by succinate at 10XCmax ([1]; 10XCmax) | State 3 respiration driven by glutamate/malate at 20XCmax ([1]; 20XCmax) | State 3 respiration driven by succinate at 20XCmax ([1]; 20XCmax) | State 4 respiration driven by glutamate/malate at 20XCmax ([1]; 20XCmax) | State 4 respiration driven by succinate at 20XCmax ([1]; 20XCmax) | State 3 respiration driven by glutamate/malate at 30XCmax ([1]; 30XCmax) | State 3 respiration driven by succinate at 30XCmax ([1]; 30XCmax) | State 4 respiration driven by glutamate/malate at 30XCmax ([1]; 30XCmax) | State 4 respiration driven by succinate at 30XCmax ([1]; 30XCmax) | State 3 respiration driven by glutamate/malate at 50XCmax ([1]; 50XCmax) | State 3 respiration driven by succinate at 50XCmax ([1]; 50XCmax) | State 4 respiration driven by glutamate/malate at 50XCmax ([1]; 50XCmax) | State 4 respiration driven by succinate at 50XCmax ([1]; 50XCmax) | State 3 respiration driven by glutamate/malate at 100XCmax ([1]; 100XCmax) | State 3 respiration driven by succinate at 100XCmax ([1]; 100XCmax) | State 4 respiration driven by glutamate/malate at 100XCmax ([1]; 100XCmax) | State 4 respiration driven by succinate at 100XCmax ([1]; 100XCmax) | RCC IV at 50XCmax [2] | RCC I at 10XCmax [3] | ROS measured by CM-H2DCFDA at 1XCmax ([4]; 1XCmax) | ROS measured by CM-H2DCFDA at 2.5XCmax ([4]; 2.5XCmax) | ROS measured by CM-H2DCFDA at 5XCmax ([4]; 5XCmax) | ROS measured by CM-H2DCFDA at 10XCmax ([4]; 10XCmax) | ROS measured by CM-H2DCFDA at 20XCmax ([4]; 20XCmax) | ROS measured by CM-H2DCFDA at 30XCmax ([4]; 30XCmax) | ROS measured by CM-H2DCFDA at 50XCmax ([4]; 50XCmax) | ROS measured by CM-H2DCFDA at 100XCmax ([4]; 100XCmax) | Swelling 1XCmax ([5]; 1XCmax) | Swelling 2.5XCmax ([5]; 2.5XCmax) | Swelling 5XCmax ([5]; 5XCmax) | Swelling 10XCmax ([5]; 10XCmax) | Swelling 20XCmax ([5]; 20XCmax) | Swelling 30XCmax ([5]; 30XCmax) | Swelling 50XCmax ([5]; 50XCmax) | Swelling 100XCmax ([5]; 100XCmax) | RCC II at 1.0XCmax ([6]; 1.0XCmax) | RCC II at 2.5XCmax ([6]; 2.5XCmax) | RCC II at 5XCmax ([6]; 5XCmax) | RCC II at 10XCmax ([6]; 10XCmax) | RCC II at 20XCmax ([6]; 20XCmax) | RCC II at 30XCmax ([6]; 30XCmax) | RCC II at 50XCmax ([6]; 50XCmax) | RCC II at 100XCmax ([6]; 100XCmax) | RCC III at 100XCmax [8] | RCC V at 5XCmax ([9]; 5XCmax) | RCC V at 50XCmax ([9]; 50XCmax) | MMP measured by Rhodamine 123 at 1XCmax ([10]; 1XCmax) | MMP measured by Rhodamine 123 at 2.5XCmax ([10]; 2.5XCmax) | MMP measured by Rhodamine 123 at 5XCmax ([10]; 5XCmax) | MMP measured by Rhodamine 123 at 10XCmax ([10]; 10XCmax) | MMP measured by Rhodamine 123 at 20XCmax ([10]; 20XCmax) | MMP measured by Rhodamine 123 at 30XCmax ([10]; 30XCmax) | MMP measured by Rhodamine 123 at 50XCmax ([10]; 50XCmax) | MMP measured by Rhodamine 123 at 100XCmax ([10]; 100XCmax)
W&P: ALT↑: Labeling for DILI ([7]; BBW: black box warning, W&P: Warnings and Precautions, ref product labeling)
W&P: ALT↑/monitoring: labeling for DILI ([7]; W&P warnings and precautions, BBW black box warnings, ref FDA product labeling)
